The results in this text go back to patent US9212182B2, “Bicyclic sulfonamide compounds as sodium channel inhibitors” (AMGEN INC., priority 2013, dated 2015).

This assay deals with Nav 1.7 (Homo sapiens (Human), UniProt Q15858). The assay is described as follows: in-vitro Nav 1.7 PX (IC50). The format is cell-based.
The mark [1] stands for this setting: in-vitro Nav 1.7 PX data, Table 4.

Where two headings read alike, the source gives them in different places.

Sequence of Nav 1.7 (Q15858 whole entry): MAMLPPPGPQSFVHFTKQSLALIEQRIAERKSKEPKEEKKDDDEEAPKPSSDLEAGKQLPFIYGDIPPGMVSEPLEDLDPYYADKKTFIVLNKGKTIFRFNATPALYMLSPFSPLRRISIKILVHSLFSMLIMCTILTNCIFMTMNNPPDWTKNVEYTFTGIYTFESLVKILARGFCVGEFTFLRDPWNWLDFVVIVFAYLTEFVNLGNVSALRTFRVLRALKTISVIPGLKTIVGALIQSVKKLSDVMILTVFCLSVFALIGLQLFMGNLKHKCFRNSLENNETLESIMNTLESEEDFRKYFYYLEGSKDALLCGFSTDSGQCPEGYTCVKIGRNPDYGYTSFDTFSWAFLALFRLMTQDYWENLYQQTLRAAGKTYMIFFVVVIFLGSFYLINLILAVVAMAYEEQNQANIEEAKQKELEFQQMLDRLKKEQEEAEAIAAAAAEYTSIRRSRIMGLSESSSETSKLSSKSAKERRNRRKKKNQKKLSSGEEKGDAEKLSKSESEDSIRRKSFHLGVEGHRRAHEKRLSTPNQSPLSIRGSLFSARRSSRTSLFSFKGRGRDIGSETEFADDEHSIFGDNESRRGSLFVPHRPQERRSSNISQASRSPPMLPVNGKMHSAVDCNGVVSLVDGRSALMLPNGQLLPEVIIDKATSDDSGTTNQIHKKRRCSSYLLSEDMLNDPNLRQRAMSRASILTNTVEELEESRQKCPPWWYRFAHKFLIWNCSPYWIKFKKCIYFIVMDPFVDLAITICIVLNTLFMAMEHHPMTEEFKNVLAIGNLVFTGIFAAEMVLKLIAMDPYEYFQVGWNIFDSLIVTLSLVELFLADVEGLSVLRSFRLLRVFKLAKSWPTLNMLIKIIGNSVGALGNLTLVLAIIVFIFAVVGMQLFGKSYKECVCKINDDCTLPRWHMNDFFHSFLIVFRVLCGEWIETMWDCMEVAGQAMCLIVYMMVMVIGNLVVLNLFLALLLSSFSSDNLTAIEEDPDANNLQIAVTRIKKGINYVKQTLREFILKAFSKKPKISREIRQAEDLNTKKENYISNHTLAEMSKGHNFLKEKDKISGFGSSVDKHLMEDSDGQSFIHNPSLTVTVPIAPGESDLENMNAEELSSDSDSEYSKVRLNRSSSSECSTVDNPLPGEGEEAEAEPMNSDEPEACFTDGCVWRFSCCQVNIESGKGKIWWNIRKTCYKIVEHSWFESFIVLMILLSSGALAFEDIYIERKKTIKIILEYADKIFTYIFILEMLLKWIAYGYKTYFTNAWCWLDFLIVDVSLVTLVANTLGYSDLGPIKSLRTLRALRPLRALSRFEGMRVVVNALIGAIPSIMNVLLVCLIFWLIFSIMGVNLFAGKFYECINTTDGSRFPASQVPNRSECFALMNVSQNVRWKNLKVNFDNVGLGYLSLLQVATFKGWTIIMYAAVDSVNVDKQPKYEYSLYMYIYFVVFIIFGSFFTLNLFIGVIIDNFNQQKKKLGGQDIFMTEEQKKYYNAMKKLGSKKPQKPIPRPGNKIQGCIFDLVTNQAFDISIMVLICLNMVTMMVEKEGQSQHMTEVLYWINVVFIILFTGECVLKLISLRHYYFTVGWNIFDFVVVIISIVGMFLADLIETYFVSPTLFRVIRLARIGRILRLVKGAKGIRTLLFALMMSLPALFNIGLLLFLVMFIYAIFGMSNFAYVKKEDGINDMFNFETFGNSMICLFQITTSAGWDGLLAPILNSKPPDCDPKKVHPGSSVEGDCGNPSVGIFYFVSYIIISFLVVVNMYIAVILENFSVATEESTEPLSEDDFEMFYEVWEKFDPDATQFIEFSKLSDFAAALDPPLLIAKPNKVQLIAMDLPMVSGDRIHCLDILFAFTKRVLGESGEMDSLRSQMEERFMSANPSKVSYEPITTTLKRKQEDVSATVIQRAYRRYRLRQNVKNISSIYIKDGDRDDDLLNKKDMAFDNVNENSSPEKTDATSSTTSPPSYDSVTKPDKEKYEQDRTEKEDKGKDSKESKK

In turn, `COc1cc(-c2ccc(C)c(F)c2)c(F)cc1-n1c(=O)ccc2cc(S(=O)(=O)Nc3ccon3)ccc21` (atropisomer, axis not shown; (M)) [Example 511, (M)-1-(2,3′-difluoro-5-methoxy-4′-methyl-4-biphenylyl)-N-3-isoxazolyl-2-oxo-1,2-dihydro-6-quinolinesulfonamide] showed an IC50 (in-vitro PatchXpress (PX)) of 8620 nM.
As to `COc1cc(-c2cccc(C(F)(F)F)c2)ccc1-n1c(=O)ccc2cc(S(=O)(=O)Nc3ncc(F)cn3)ccc21` [Example 917, N-(5-fluoro-2-pyrimidinyl)-1-(3-methoxy-3′-(trifluoromethyl)-4-biphenylyl)-2-oxo-1,2-dihydro-6-quinolinesulfonamide], where the note is “in-vitro Nav 1.7 PX data”, half-maximal inhibition (IC50) was put at 31 nM. This lies in the double-digit nanomolar range.
`COc1cc(-c2cc(OC)c(-n3c(=O)ccc4cc(S(=O)(=O)Nc5ncccn5)ccc43)cc2C)ccc1C` [Example 966, 1-(3′,5-dimethoxy-2,4′-dimethyl-4-biphenylyl)-2-oxo-N-2-pyrimidinyl-1,2-dihydro-6-quinolinesulfonamide] came in with an IC50 (in-vitro Nav 1.7 PX data) of 64 nM.
On to `COc1cc(-c2ccc(Cl)c(C)c2)c(F)cc1-n1c(=O)ccc2cc(S(=O)(=O)Nc3ncon3)ccc21` (atropisomer, axis not shown; (P)) [Example 663, (P)-1-(4′-chloro-2-fluoro-5-methoxy-3′-methyl-4-biphenylyl)-N-1,2,4-oxadiazol-3-yl-2-oxo-1,2-dihydro-6-quinolinesulfonamide], for which half-maximal inhibition (in-vitro Nav 1.7 PX data) (IC50) was put at 6 nM.
In the case of `COc1cc(F)cc(-c2ccc(-n3c(=O)ccc4cc(S(=O)(=O)Nc5cc(C)ncn5)ccc43)c(OC)c2)c1` [Example 1004, 1-(3′-fluoro-3,5′-dimethoxy-4-biphenylyl)-N-(6-methyl-4-pyrimidinyl)-2-oxo-1,2-dihydro-6-quinolinesulfonamide], where the note is “in-vitro Nav 1.7 PX data”, the IC50 amounted to 219 nM.
Under “in-vitro Nav 1.7 PX data”, `CCOc1cccc(-c2cc(OC)c(-n3c(=O)ccc4cc(S(=O)(=O)Nc5ncccn5)ccc43)cc2C)c1` [Example 963, 1-(3′-ethoxy-5-methoxy-2-methyl-4-biphenylyl)-2-oxo-N-2-pyrimidinyl-1,2-dihydro-6-quinolinesulfonamide] returned a half-inhibitory concentration (IC50) of 27 nM. This IC50 lies about 8.1-fold lower than the previous one.
Consider `COc1nc(OCc2ccc(F)cc2)c(Cl)cc1-n1c(=O)ccc2cc(S(=O)(=O)Nc3ccon3)ccc21` [Example 1214, 1-(5-chloro-6-((4-fluorobenzyl)oxy)-2-methoxy-3-pyridinyl)-N-3-isoxazolyl-2-oxo-1,2-dihydro-6-quinolinesulfonamide], for which the IC50 was 111 nM.
Molecule `COc1cc(-c2cccc(C)c2)ccc1-n1c(=O)ccc2cc(S(=O)(=O)Nc3cc(C)ncn3)ccc21` [Example 1131, 1-(3-methoxy-3′-methyl-4-biphenylyl)-N-(6-methyl-4-pyrimidinyl)-2-oxo-1,2-dihydro-6-quinolinesulfonamide] had an IC50 (in-vitro Nav 1.7 PX data) of 155 nM.
The molecule `COc1ccc(-c2ccccc2C(F)(F)F)cc1-n1c(=O)ccc2cc(S(=O)(=O)Nc3ccon3)ccc21` [Example 850, N-3-isoxazolyl-1-(4-methoxy-2′-(trifluoromethyl)-3-biphenylyl)-2-oxo-1,2-dihydro-6-quinolinesulfonamide] returned an IC50 (in-vitro Nav 1.7 PX data) of 141 nM. This IC50 and that of the molecule before are within 1.5-fold of each other.
Under “in-vitro Nav 1.7 PX data”, `COc1cc(-c2ccncc2Cl)c(F)cc1-n1c(=O)ccc2cc(S(=O)(=O)Nc3ccon3)ccc21` [Example 748, 1-(4-(3-chloro-4-pyridinyl)-5-fluoro-2-methoxyphenyl)-N-3-isoxazolyl-2-oxo-1,2-dihydro-6-quinolinesulfonamide] showed a concentration for half-maximal inhibition (IC50) of 573 nM.
On to `COc1cc(-c2cccc(C(F)(F)F)c2)ccc1-n1c(=O)ccc2cc(S(=O)(=O)Nc3ccncn3)ccc21` (atropisomer, axis not shown; (P)) [Example 671, (P)-1-(3-methoxy-3′-(trifluoromethyl)-4-biphenylyl)-2-oxo-N-4-pyrimidinyl-1,2-dihydro-6-quinolinesulfonamide], for which the IC50 (in-vitro Nav 1.7 PX data) was 11 nM.
Turning to `COc1cc(-c2cccc(F)c2)c(Cl)cc1-n1c(=O)ccc2cc(S(=O)(=O)Nc3ccon3)c(F)cc21` (atropisomer, axis not shown; (P)) [Example 358, (P)-1-(2-chloro-3′-fluoro-5-methoxy-[1,1′-biphenyl]-4-yl)-7-fluoro-N-(isoxazol-3-yl)-2-oxo-1,2-dihydroquinoline-6-sulfonamide], the half-maximal inhibitory concentration (IC50) came to 4660 nM.
Molecule `COc1cc(-c2cccc(F)c2)c(Cl)cc1-n1c(=O)ccc2cc(S(=O)(=O)Nc3ncccn3)ccc21` (atropisomer, axis not shown; (P)) [Example 355, (P)-1-(2-chloro-3′-fluoro-5-methoxy-[1,1′-biphenyl]-4-yl)-2-oxo-N-(pyrimidin-2-yl)-1,2-dihydroquinoline-6-sulfonamide] returned a concentration for half-maximal inhibition (IC50) of 31 nM.
As for `COc1ccc(-c2cncc(Cl)c2)cc1-n1c(=O)ccc2cc(S(=O)(=O)Nc3ccon3)ccc21` [Example 494, 1-(5-(5-chloro-3-pyridinyl)-2-methoxyphenyl)-N-3-isoxazolyl-2-oxo-1,2-dihydro-6-quinolinesulfonamide], half-maximal inhibition (IC50) required 682 nM.
For the setting “in-vitro Nav 1.7 PX data”, `COc1ccc(-c2ccc(Cl)c(C)c2)cc1-n1c(=O)ccc2cc(S(=O)(=O)Nc3ccon3)ccc21` [Example 872, 1-(4′-chloro-4-methoxy-3′-methyl-3-biphenylyl)-N-3-isoxazolyl-2-oxo-1,2-dihydro-6-quinolinesulfonamide] displayed an IC50 of 11600 nM.
Same read-out and setting: to `COc1cc(-c2ccc(Cl)cc2C)c(F)cc1-n1c(=O)ccc2cc(S(=O)(=O)Nc3ccon3)ccc21` [Example 742, 1-(4′-chloro-2-fluoro-5-methoxy-2′-methyl-4-biphenylyl)-N-3-isoxazolyl-2-oxo-1,2-dihydro-6-quinolinesulfonamide] belongs 7 nM.
For the setting “in-vitro PatchXpress (PX)”, `COc1cc(-c2cccc(C#N)c2)c(F)cc1-n1c(=O)ccc2cc(S(=O)(=O)Nc3ccon3)ccc21` (atropisomer, axis not shown; (P)) [Example 498, (P)-1-(3′-cyano-2-fluoro-5-methoxy-4-biphenylyl)-N-3-isoxazolyl-2-oxo-1,2-dihydro-6-quinolinesulfonamide] displayed a half-maximal inhibitory concentration (IC50) of 34 nM.
For the setting “in-vitro Nav 1.7 PX data”, `COc1cc(CC2CCCCC2)c(F)cc1-n1c(=O)ccc2cc(S(=O)(=O)Nc3cnccn3)ccc21` [Example 1116, 1-(4-(cyclohexylmethyl)-5-fluoro-2-methoxyphenyl)-2-oxo-N-2-pyrazinyl-1,2-dihydro-6-quinolinesulfonamide] yielded an IC50 of 30 nM.
Under “in-vitro Nav 1.7 PX data”, `COc1cc(-c2ccc(C3CC3)cc2)c(F)cc1-n1c(=O)ccc2cc(S(=O)(=O)Nc3ccon3)ccc21` [Example 757, 1-(4′-cyclopropyl-2-fluoro-5-methoxy-4-biphenylyl)-N-3-isoxazolyl-2-oxo-1,2-dihydro-6-quinolinesulfonamide] registered an IC50 of 35 nM. This IC50 and that of the molecule before are within 1.5-fold of each other.
For `COc1cc(-c2ccc(Cl)cc2)c(F)cc1-n1c(=O)ccc2cc(S(=O)(=O)Nc3ccc(F)cn3)ccc21` (atropisomer, axis not shown; (P)) [Example 1163, (P)-1-(4′-chloro-2-fluoro-5-methoxy-4-biphenylyl)-N-(5-fluoro-2-pyridinyl)-2-oxo-1,2-dihydro-6-quinolinesulfonamide], the IC50 under setting [1] was 159 nM.
As for `COc1cc(-c2cnc(OC)c(Cl)c2)c(F)cc1-n1c(=O)ccc2cc(S(=O)(=O)Nc3ccc(F)cn3)ccc21` (atropisomer, axis not shown; (P)) [Example 1161, (P)-1-(4-(5-chloro-6-methoxy-3-pyridinyl)-5-fluoro-2-methoxyphenyl)-N-(5-fluoro-2-pyridinyl)-2-oxo-1,2-dihydro-6-quinolinesulfonamide], under setting [1], 20 nM corresponded to half-maximal inhibition (IC50).
Molecule `COc1cc(-c2ccc(-n3c(=O)ccc4cc(S(=O)(=O)Nc5ccon5)ccc43)c(OC)c2)ccc1C` (atropisomer, axis not shown; (P)) [Example 686, (P)-1-(3,3′-dimethoxy-4′-methyl-4-biphenylyl)-N-3-isoxazolyl-2-oxo-1,2-dihydro-6-quinolinesulfonamide] returned a 50% inhibitory concentration (IC50) (in-vitro Nav 1.7 PX data) of 15 nM.
With `CCc1cccc(-c2ccc(-n3c(=O)ccc4cc(S(=O)(=O)Nc5ccon5)ccc43)c(OC)c2)c1` [Example 810, 1-(3′-ethyl-3-methoxy-4-biphenylyl)-N-3-isoxazolyl-2-oxo-1,2-dihydro-6-quinolinesulfonamide], inhibition (in-vitro Nav 1.7 PX data) was half-maximal at 15 nM (IC50).
As for `COc1cc(-c2ccc(C#N)c(Cl)c2)c(F)cc1-n1c(=O)ccc2cc(S(=O)(=O)Nc3ccon3)ccc21` (atropisomer, axis not shown; (P)) [Example 520, (P)-1-(3′-chloro-4′-cyano-2-fluoro-5-methoxy-4-biphenylyl)-N-3-isoxazolyl-2-oxo-1,2-dihydro-6-quinolinesulfonamide], half-maximal inhibition (in-vitro PatchXpress (PX)) (IC50) was put at 26 nM.
`COc1ccc(-c2cccc(Cl)c2C)cc1-n1c(=O)ccc2cc(S(=O)(=O)Nc3ccon3)ccc21` [Example 895, 1-(3′-chloro-4-methoxy-2′-methyl-3-biphenylyl)-N-3-isoxazolyl-2-oxo-1,2-dihydro-6-quinolinesulfonamide] returned a half-maximal inhibitory concentration (IC50) (in-vitro Nav 1.7 PX data) of 1840 nM.
In the case of `COc1ccc(-c2ccc(F)c(F)c2)cc1-n1c(=O)ccc2cc(S(=O)(=O)Nc3ccon3)ccc21` [Example 839, 1-(3′,4′-difluoro-4-methoxy-3-biphenylyl)-N-3-isoxazolyl-2-oxo-1,2-dihydro-6-quinolinesulfonamide], it took 113 nM to reach half-maximal inhibition (in-vitro Nav 1.7 PX data) (IC50).
On to `COc1nc(OCC(F)(F)F)c(Cl)cc1-n1c(=O)ccc2cc(S(=O)(=O)Nc3ccon3)ccc21` [Example 833, 1-(5-chloro-2-methoxy-6-(2,2,2-trifluoroethoxy)-3-pyridinyl)-N-3-isoxazolyl-2-oxo-1,2-dihydro-6-quinolinesulfonamide], for which the IC50 (in-vitro Nav 1.7 PX data) is 565 nM.
In turn, `COc1cc(-c2cc(F)cc(Cl)c2)c(F)cc1-n1c(=O)ccc2cc(S(=O)(=O)Nc3cnsn3)ccc21` [Example 922, 1-(3′-chloro-2,5′-difluoro-5-methoxy-4-biphenylyl)-2-oxo-N-1,2,5-thiadiazol-3-yl-1,2-dihydro-6-quinolinesulfonamide] had an IC50 (in-vitro Nav 1.7 PX data) of 4 nM. This IC50 is about 140-fold lower than that of the molecule before.
`COc1cc(-c2cccc(F)c2)ncc1-n1c(=O)ccc2cc(S(=O)(=O)Nc3ccon3)ccc21` [Example 601, 1-(6-(3-fluorophenyl)-4-methoxy-3-pyridinyl)-N-3-isoxazolyl-2-oxo-1,2-dihydro-6-quinolinesulfonamide] gave an IC50 (in-vitro Nav 1.7 PX data) of 1770 nM.
